± gives the expanded uncertainty stated by the source.
Columns and labels:
[1] = 101.32 kPa, Liquid
[2] = refractive index (Na D-line) (dimensionless); details: 101.33 kPa, Liquid

Structure (SMILES) | mass density ([1]; 288.15 K) | viscosity ([1]; 288.15 K) | mass density ([1]; 298.15 K) | viscosity ([1]; 298.15 K) | mass density ([1]; 308.15 K) | viscosity ([1]; 308.15 K) | refractive index ([2]; 288.15 K) | refractive index ([2]; 298.15 K) | refractive index ([2]; 308.15 K)
CCCO [propan-1-ol] | 807.6 ± 0.9 kg/m3 | 2.504 ± 0.029 mPa·s | 799.6 ± 0.9 kg/m3 | 1.958 ± 0.023 mPa·s | 791.5 ± 0.9 kg/m3 | 1.548 ± 0.019 mPa·s | 1.3869 ± 0.0006 | 1.3829 ± 0.0006 | 1.3789 ± 0.0006
CCCCO [butan-1-ol] | 813.5 ± 0.9 kg/m3 | 3.394 ± 0.039 mPa·s | 805.9 ± 0.9 kg/m3 | 2.598 ± 0.03 mPa·s | 798.2 ± 0.9 kg/m3 | 2.019 ± 0.024 mPa·s | 1.401 ± 0.0006 | 1.3972 ± 0.0006 | 1.3932 ± 0.0006
CCO [ethanol] | 793.8 ± 0.9 kg/m3 | 1.317 ± 0.016 mPa·s | 785.2 ± 0.9 kg/m3 | 1.085 ± 0.014 mPa·s | 776.6 ± 1 kg/m3 | 0.902 ± 0.012 mPa·s | 1.363 ± 0.0006 | 1.3591 ± 0.0006 | 1.355 ± 0.0006
CO [methanol] | 796.1 ± 0.9 kg/m3 | 0.627 ± 0.01 mPa·s | 786.6 ± 0.9 kg/m3 | 0.543 ± 0.009 mPa·s | 777.2 ± 1 kg/m3 | 0.473 ± 0.009 mPa·s | 1.3303 ± 0.0006 | 1.3275 ± 0.0006 | 1.3254 ± 0.0006
CCCCCl [1-chlorobutane] | 892.2 ± 0.6 kg/m3 | 0.472 ± 0.009 mPa·s | 881 ± 0.7 kg/m3 | 0.423 ± 0.008 mPa·s | 869.7 ± 0.7 kg/m3 | 0.382 ± 0.008 mPa·s | 1.4045 ± 0.0006 | 1.3993 ± 0.0006 | 1.3941 ± 0.0006

Source: the NIST ThermoML archive (doi:10.1021/je030226s)
